From ChEMBL document CHEMBL1152560, “Substituted 2-arylbenzothiazoles as kinase inhibitors: hit-to-lead optimization” (Bioorg Med Chem, 2009)

Experiments:
[1] = biological target: Dual specificity tyrosine-phosphorylation-regulated kinase 1B (Homo sapiens) (UniProt Q9Y463); experiment: Residual activity of DYRK1B at 1 uM by microplate scintillation counting
[2] = biological target: T1, Lymphokine-activated killer T-cell-originated protein kinase (Homo sapiens) (UniProt Q96KB5); experiment: Residual activity of PBK at 10 uM by microplate scintillation counting
T1 sequence (whole entry): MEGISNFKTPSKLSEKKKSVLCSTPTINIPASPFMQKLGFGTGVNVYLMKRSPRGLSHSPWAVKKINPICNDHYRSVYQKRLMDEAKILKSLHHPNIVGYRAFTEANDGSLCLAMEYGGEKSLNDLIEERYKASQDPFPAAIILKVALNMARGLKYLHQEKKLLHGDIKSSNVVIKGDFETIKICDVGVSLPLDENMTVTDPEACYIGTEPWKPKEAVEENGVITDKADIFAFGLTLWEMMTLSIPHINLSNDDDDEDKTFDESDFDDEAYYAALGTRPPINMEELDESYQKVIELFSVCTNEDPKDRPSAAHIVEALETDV

[3] = biological target: Tyrosine-protein kinase ABL1 (Homo sapiens) (UniProt P00519); experiment: Residual activity of wild type ABL1 at 10 uM by microplate scintillation counting
[4] = biological target: Protein kinase C eta type (Homo sapiens) (UniProt P24723); experiment: Residual activity of PKCeta at 0.1 uM by microplate scintillation counting
[5] = biological target: Serine/threonine-protein kinase PAK 3 (Homo sapiens) (UniProt O75914); experiment: Residual activity of PAK3 at 10 uM by microplate scintillation counting
[6] = biological target: T2, cAMP-dependent protein kinase catalytic subunit PRKX (Homo sapiens) (UniProt P51817); experiment: Residual activity of PRKX at 1 uM by microplate scintillation counting
T2 sequence (whole entry): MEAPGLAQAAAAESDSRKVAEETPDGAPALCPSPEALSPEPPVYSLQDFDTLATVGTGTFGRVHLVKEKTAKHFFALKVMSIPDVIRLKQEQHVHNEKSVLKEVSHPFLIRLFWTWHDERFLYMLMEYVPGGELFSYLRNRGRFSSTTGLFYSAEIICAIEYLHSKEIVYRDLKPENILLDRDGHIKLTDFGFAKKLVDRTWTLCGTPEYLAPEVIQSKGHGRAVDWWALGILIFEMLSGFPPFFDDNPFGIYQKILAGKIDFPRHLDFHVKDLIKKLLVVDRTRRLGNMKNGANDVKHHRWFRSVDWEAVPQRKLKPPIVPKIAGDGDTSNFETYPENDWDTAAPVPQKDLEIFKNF

[7] = biological target: Tyrosine-protein kinase CSK (Homo sapiens) (UniProt P41240); experiment: Residual activity of CSK at 1 uM by microplate scintillation counting
[8] = biological target: Serine/threonine-protein kinase PLK3 (Homo sapiens) (UniProt Q9H4B4); experiment: Residual activity of PLK3 at 0.1 uM by microplate scintillation counting
[9] = biological target: Serine/threonine-protein kinase B-raf (Homo sapiens) (UniProt P15056); experiment: Residual activity of Wild type B-RAF at 10 uM by microplate scintillation counting
[10] = biological target: Cyclin-dependent kinase 1/cyclin B1 (Homo sapiens) (UniProt P06493+P14635); experiment: Residual activity of CDK1/CyclinB1 at 1 uM by microplate scintillation counting; assay type: protein-complex assay
[11] = biological target: Serine/threonine-protein kinase 33 (Homo sapiens) (UniProt Q9BYT3); experiment: Residual activity of STK33 at 10 uM by microplate scintillation counting
[12] = biological target: T3, Inhibitor of nuclear factor kappa-B kinase subunit alpha (Homo sapiens) (UniProt O15111); experiment: Residual activity of IKKalpha at 10 uM by microplate scintillation counting
T3 sequence (whole entry): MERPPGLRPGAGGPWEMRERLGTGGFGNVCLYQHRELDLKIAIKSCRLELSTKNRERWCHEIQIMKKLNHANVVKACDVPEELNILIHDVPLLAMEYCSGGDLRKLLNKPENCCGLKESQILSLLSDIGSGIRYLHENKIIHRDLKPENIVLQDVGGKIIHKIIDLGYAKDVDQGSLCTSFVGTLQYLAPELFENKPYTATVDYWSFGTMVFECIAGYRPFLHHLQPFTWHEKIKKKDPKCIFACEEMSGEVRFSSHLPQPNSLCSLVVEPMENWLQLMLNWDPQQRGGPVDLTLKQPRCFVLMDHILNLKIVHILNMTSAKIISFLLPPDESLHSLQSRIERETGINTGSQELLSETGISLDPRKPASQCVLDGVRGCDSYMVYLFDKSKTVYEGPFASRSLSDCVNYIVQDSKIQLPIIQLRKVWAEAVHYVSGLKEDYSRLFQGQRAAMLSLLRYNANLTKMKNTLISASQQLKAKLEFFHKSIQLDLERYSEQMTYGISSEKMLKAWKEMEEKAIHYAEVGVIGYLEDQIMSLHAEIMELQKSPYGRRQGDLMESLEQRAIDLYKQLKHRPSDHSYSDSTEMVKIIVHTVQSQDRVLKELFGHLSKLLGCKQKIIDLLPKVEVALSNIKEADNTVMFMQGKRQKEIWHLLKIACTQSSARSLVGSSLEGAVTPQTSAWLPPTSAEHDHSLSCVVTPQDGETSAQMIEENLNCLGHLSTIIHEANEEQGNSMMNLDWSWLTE

[13] = biological target: Cyclin-dependent kinase 5/CDK5 activator 1 (Homo sapiens) (UniProt Q00535+Q15078); experiment: Residual activity of CDK5/p35NCK at 1 uM by microplate scintillation counting; assay type: protein-complex assay
Sequence of Cyclin-dependent kinase 5/CDK5 activator 1 (Homo sapiens) (Q00535 whole entry): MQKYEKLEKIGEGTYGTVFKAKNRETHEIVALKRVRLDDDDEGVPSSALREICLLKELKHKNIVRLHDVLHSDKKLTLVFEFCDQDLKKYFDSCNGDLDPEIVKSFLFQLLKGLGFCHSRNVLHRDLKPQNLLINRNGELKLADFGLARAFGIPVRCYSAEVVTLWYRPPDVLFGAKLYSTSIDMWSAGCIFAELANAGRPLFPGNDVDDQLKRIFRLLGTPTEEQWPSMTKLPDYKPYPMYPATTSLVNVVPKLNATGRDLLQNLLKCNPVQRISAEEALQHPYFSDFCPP
Sequence of Cyclin-dependent kinase 5/CDK5 activator 1 (Homo sapiens) (Q15078 99-307 partner limits assumed): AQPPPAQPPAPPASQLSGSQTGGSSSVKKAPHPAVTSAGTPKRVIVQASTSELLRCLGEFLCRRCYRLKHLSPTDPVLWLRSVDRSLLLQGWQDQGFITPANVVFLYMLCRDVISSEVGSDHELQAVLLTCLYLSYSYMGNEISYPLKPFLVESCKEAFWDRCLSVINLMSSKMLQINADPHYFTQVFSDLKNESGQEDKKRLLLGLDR

Sequence of Protein kinase C eta type (Homo sapiens) (P24723 whole entry): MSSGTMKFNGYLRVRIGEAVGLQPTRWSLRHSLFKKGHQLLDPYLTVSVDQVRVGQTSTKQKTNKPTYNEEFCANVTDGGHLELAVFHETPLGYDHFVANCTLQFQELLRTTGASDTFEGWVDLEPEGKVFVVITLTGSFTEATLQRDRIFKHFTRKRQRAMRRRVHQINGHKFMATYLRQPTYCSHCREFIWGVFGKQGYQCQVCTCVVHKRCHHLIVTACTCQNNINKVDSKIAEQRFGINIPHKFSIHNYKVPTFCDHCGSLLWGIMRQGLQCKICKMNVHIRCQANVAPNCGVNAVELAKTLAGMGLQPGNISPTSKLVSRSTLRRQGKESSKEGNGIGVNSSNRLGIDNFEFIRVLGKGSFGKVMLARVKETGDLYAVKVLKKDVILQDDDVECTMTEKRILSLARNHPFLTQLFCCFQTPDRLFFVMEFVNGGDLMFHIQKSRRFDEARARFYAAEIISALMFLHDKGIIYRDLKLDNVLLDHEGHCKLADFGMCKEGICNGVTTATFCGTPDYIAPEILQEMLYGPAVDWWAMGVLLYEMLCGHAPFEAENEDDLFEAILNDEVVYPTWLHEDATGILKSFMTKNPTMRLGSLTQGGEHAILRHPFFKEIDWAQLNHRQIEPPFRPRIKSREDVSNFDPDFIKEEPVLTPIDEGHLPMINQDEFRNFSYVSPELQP
Sequence of Serine/threonine-protein kinase PLK3 (Homo sapiens) (Q9H4B4 whole entry, looked up): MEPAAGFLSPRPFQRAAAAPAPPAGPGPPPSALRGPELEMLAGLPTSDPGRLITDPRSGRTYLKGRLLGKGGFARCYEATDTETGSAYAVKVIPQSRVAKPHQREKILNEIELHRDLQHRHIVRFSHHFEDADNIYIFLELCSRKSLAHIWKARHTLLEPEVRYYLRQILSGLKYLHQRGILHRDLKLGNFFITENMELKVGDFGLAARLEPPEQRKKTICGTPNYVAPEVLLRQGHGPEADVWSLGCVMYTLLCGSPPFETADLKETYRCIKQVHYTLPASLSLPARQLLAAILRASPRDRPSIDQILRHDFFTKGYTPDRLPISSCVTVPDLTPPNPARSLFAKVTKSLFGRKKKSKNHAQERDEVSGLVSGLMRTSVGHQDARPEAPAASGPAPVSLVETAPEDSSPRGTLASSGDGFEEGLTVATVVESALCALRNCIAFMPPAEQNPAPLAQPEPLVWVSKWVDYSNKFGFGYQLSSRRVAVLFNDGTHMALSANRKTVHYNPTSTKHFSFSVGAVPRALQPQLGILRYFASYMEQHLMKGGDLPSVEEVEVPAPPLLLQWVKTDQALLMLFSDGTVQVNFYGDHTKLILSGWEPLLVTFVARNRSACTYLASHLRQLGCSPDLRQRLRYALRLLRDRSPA
Sequence of Serine/threonine-protein kinase B-raf (Homo sapiens) (P15056 whole entry): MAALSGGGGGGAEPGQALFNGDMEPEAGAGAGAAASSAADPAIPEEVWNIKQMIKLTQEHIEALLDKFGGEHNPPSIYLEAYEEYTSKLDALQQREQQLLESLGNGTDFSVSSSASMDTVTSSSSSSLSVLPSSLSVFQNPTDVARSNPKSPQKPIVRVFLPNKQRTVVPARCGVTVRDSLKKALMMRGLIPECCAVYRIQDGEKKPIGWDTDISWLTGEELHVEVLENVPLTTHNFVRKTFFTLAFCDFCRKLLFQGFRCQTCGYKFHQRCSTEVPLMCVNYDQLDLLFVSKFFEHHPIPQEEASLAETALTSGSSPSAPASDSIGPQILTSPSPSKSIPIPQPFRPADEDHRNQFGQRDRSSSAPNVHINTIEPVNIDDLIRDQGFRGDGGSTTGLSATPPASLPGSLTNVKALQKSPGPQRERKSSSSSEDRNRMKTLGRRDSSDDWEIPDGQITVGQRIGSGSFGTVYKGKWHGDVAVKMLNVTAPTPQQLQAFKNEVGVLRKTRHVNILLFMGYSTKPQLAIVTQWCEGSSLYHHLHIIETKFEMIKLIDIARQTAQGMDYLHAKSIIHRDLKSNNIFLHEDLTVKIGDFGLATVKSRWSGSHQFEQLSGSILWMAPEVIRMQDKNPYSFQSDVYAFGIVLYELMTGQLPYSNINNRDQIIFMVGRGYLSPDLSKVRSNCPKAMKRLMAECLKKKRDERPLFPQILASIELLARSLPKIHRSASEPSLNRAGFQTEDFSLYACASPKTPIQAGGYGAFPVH
Sequence of Cyclin-dependent kinase 1/cyclin B1 (Homo sapiens) (P06493 whole entry, looked up): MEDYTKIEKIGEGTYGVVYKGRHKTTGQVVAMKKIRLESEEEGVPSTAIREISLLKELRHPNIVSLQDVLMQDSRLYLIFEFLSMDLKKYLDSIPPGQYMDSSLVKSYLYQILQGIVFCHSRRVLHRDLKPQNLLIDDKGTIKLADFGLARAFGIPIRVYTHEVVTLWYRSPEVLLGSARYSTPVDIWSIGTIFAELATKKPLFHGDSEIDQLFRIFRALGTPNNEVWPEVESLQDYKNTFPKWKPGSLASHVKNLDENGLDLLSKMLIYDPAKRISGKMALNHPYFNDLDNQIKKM
Sequence of Cyclin-dependent kinase 1/cyclin B1 (Homo sapiens) (P14635 whole entry, looked up): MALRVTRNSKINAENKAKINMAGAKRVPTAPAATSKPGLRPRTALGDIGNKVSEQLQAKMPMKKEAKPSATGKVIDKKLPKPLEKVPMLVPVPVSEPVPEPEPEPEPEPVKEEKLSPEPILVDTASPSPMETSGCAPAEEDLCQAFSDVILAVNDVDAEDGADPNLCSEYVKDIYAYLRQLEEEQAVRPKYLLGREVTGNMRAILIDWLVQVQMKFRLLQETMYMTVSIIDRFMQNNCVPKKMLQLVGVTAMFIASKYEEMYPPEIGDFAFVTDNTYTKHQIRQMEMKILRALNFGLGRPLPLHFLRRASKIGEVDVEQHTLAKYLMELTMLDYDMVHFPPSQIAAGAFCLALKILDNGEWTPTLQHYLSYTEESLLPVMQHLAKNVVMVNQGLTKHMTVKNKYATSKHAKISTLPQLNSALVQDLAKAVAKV
Sequence of Tyrosine-protein kinase ABL1 (Homo sapiens) (P00519 whole entry): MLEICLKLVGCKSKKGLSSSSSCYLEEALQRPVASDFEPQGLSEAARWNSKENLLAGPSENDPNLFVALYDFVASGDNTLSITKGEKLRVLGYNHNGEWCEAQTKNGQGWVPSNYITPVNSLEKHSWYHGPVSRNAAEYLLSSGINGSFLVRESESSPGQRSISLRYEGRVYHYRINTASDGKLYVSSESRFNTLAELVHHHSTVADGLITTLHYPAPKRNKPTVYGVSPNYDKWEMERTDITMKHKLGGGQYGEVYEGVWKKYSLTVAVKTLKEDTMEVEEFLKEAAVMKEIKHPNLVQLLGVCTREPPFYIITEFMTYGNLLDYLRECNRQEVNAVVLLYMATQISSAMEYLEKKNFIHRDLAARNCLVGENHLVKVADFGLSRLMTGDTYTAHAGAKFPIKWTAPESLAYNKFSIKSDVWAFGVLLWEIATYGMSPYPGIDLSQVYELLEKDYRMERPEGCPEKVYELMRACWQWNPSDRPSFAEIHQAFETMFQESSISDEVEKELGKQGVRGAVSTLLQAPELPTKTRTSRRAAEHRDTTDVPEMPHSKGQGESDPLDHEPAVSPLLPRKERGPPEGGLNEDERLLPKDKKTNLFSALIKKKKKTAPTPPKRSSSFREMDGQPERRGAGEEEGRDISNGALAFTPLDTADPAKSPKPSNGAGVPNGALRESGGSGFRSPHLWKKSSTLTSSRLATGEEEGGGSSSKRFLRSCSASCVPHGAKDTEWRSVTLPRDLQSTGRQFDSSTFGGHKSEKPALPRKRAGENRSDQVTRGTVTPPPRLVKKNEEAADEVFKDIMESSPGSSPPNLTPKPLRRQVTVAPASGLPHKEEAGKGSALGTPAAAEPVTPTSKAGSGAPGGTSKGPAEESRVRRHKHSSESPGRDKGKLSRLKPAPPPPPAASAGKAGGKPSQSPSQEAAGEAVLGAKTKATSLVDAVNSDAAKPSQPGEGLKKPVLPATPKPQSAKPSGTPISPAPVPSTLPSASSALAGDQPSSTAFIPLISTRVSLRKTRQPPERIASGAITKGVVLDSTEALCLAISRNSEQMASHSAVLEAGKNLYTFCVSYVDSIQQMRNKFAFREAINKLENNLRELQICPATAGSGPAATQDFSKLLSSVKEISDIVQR
Sequence of Serine/threonine-protein kinase 33 (Homo sapiens) (Q9BYT3 whole entry, looked up): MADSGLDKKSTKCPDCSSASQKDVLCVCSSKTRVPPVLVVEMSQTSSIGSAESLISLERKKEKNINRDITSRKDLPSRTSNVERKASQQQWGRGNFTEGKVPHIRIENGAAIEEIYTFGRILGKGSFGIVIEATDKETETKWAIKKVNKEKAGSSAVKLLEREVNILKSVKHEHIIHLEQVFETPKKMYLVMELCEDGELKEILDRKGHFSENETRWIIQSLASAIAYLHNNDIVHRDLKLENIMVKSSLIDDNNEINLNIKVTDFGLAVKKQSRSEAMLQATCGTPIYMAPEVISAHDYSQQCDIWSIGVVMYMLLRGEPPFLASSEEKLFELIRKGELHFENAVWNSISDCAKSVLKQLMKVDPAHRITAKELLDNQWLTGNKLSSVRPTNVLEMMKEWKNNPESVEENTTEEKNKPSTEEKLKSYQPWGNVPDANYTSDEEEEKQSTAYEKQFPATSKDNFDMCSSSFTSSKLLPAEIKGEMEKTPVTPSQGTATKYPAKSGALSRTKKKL

residual activity [1] | residual activity [3] | residual activity [4] | residual activity [5] | residual activity [6] | residual activity [7] | residual activity [8] | residual activity [9] | residual activity [10] | residual activity [11] | residual activity [12] | residual activity [13] | SMILES | residual activity [2]
98% | 41% | 117% | 56% | 86% | 97% | 87% | 51% | 81% | 107% | 122% | 97% | COc1cc2c(Oc3ccc(-c4nc5ccccc5s4)cc3)ncnc2cc1OCCCN1CCCC1 | 85%
105% | 28% | 97% | 43% | 89% | 82% | 88% | 70% | 89% | 81% | 130% | 85% | COc1cc2c(Oc3ccc(-c4nc5ccccc5s4)cc3)ncnc2cc1OCCCN1CCN(C)CC1 | 102%
95% | 26% | 104% | 39% | 92% | 76% | 87% | 74% | 99% | 94% | 135% | 86% | COc1cc2c(Oc3ccc(-c4nc5ccccc5s4)cc3F)ncnc2cc1OCCCN1CCN(C)CC1 | 65%
